Measurements taken from patent US4772586A, “Novel derivatives of arginine vasopressin antagonists” (Medical College of Ohio, priority 1986, dated 1988).
*1 amine or outer side, *2 acyl side, *3 side chain or, on linkers, in order; H or OH if unused. Where a SMILES comes first, the peptide text is derived from it. Bridges are numbered along the chain shown (N, C = ends). Where no end group is shown, it is not given here. [ ]: non-standard residue; d: D form. X1 = O=C(CC1(S[*:2])CCCCC1)[*:1]; Sar = CNCC(=O)O

Legend:
vasopressor response = assay: Vasopressor (VP) agonistic activity; type: in vivo; settings: Table 1; vasopressor agonism; ^+ = weak partial agonistic activity not clearly related to dose
[1] = system: ethanol-anesthesized water-loaded rats; assay: Activity as antidiuretic agonists, intravenous injection; type: in vivo; settings: for Agonistic Activities ADH: Table 1, antidiuretic agonism, i.v., ^+ = weak partial agonistic activity not clearly related to dose
Description: Activity as antidiuretic agonists was determined by intravenous injection of the compounds being evaluated in ethanol-anesthesized water-loaded rats in accordance with Sawyer, Endocrinology, vol. 63 (1958) at 694. Antagonism of the antidiuretic response to subsequent injections of arginine vasopressin was tested by the method of Sawyer et al., Science, vol. 212 (1981) at 49.

[2] = system: antidiuretic response to arginine vasopressin; assay: Antagonism of the antidiuretic response to arginine vasopressin (Anti-ADH); type: in vivo, rats; settings: for Anti-ADH pA2: Table 1, estimated in vivo pA2 = negative log of effective dose divided by volume of distribution (67 ml/kg)
How it was run: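 Compounds were given intravenously to ethanol-anesthetized, water-loaded rats, followed by arginine vasopressin challenge. Effective dose (nmol/kg) is the antagonist dose that reduces the response to 2x units of agonist, given 20 min later, to the response to 1x units. pA2 is the negative log of effective dose divided by an estimated 67 ml/kg distribution volume.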

[3] = system: vasopressor response to arginine vasopressin; assay: Antagonism to the vasopressor response (Anti-VP); type: in vivo; settings: estimated in vivo pA2; for Anti-VP pA2: Table 1
How it was run: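 In vivo antagonism of arginine vasopressin pressor response per Dyckes et al. Effective dose (nmol/kg) is the antagonist dose making the response to 2x agonist units, injected 20 min later, equal that to 1x units. pA2 is the negative log of effective dose divided by 67 ml/kg distribution volume.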

| Molecule | Anti-ADH pA2 [2] | Anti-VP pA2 [3] | other results |
| --- | --- | --- | --- |
| 9-desglycinamide-arginine vasopressin (CYFQNCPR; disulfide 1-6 (inferred); ends not checked; UniProt P01185 20-27, looked up, fragment) [desGly^9 (NH2)AVP] |  |  | Agonistic Activities VP (vasopressor response): ~ 0.02 units/mg; Agonistic Activities ADH [1]: 5.6 ± 1.1 units/mg |
| NC(=O)CC[C@@H]1NC(=O)[C@H](Cc2ccccc2)NC(=O)[C@H](Cc2ccc(O)cc2)NC(=O)[C@@H](N)CSSC[C@@H](C(=O)N2CCC[C@H]2C(=O)N[C@@H](CCCN=C(N)N)C(=O)NCC(N)=O)NC(=O)[C@H](CC(N)=O)NC1=O [AVP, arginine vasopressin] |  |  | Agonistic Activities VP (vasopressor response): 382 ± 5 units/mg; Agonistic Activities ADH [1]: 330 ± 23 units/mg |
| CC[C@H](C)[C@@H]1NC(=O)[C@H](Cc2ccccc2)NC(=O)[C@@H](Cc2ccccc2)NC(=O)CC2(CCCCC2)SSC[C@@H](C(=O)N2CCC[C@H]2C(=O)N[C@@H](CCCNC(=N)N)C(=O)NCC(N)=O)NC(=O)[C@H](CC(N)=O)NC1=O [d(CH2)5 [D-Phe^2,Ile^ 4]AVP, [1-(beta-mercapto-beta,beta-cyclopentamethylenepropionic acid), 2-D-phenylalanine, 4-isoleucine]-arginine vasopressin, reference compound] ([dF]FINCPRG-NH2; linker N-5 via X1) | 8.24 ± 0.08 | 7.86 ± 0.05 |  |
| CCOc1ccc(C[C@H]2NC(=O)CC3(CCCCC3)SSC[C@@H](C(=O)N3CCC[C@H]3C(=O)N[C@@H](CCCNC(=N)N)C(=O)NCC(N)=O)NC(=O)[C@H](CC(N)=O)NC(=O)[C@H](C(C)C)NC(=O)[C@H](Cc3ccccc3)NC2=O)cc1 [d(CH2)5 [D-Tyr(Et)^2]VAVP, [1-(beta-mercapto-beta,beta-cyclopentamethylenepropionic acid), 2-D-(O-ethyl)tyrosine, 4-valine]-arginine vasopressin, reference compound] ([dY](Et)FVNCPRG-NH2; linker N-5 via X1) | 7.81 ± 0.07 | 8.22 ± 0.12 |  |
| CCOc1ccc(C[C@@H]2NC(=O)CC3(CCCCC3)SSC[C@@H](C(=O)N3CCC[C@H]3C(=O)N[C@@H](CCCNC(=N)N)C(=O)NCC(N)=O)NC(=O)[C@H](CC(N)=O)NC(=O)[C@H](C(C)C)NC(=O)[C@H](Cc3ccccc3)NC2=O)cc1 [d(CH2)5 [Tyr(Et)]^2 VAVP, [1-(beta-mercapto-beta,beta-cyclopentamethylenepropionic acid), 2-(O-ethyl)tyrosine, 4-valine]-arginine vasopressin, reference compound] (Y(Et)FVNCPRG-NH2; linker N-5 via X1) | 7.57 ± 0.06 | 8.16 ± 0.09 |  |
| CNC(=O)CN(C)C(=O)[C@H](CCCNC(=N)N)NC(=O)[C@@H]1CCCN1C(=O)[C@@H]1CSSC2(CCCCC2)CC(=O)N[C@@H](Cc2ccc(OC)cc2)C(=O)N[C@@H](Cc2ccccc2)C(=O)N[C@@H](CCC(N)=O)C(=O)N[C@@H](CC(N)=O)C(=O)N1 [d(CH2)5 [Tyr(Me)^2, Sar(NHMe)^9]AVP, [1-(beta-mercapto-beta,beta-cyclopentamethylenepropionic acid), 2-O-methyltyrosine, 9-sarcosine-N-methylamide]-arginine vasopressin] (Y(Me)FQNCPR[Sar]-NHMe; linker N-5 via X1) |  |  | Anti-ADH Potency pA2 ([2]; Table 4, estimated in vivo pA2): ~ 5.5; Anti-VP Potency pA2 ([3]; Table 4, ^+ = mixed): 8.31 ± 0.03 |
| CC(C)[C@@H]1NC(=O)[C@H](Cc2ccccc2)NC(=O)[C@@H](Cc2ccccc2)NC(=O)CC2(CCCCC2)SSC[C@@H](C(=O)N2CCC[C@H]2C(=O)N[C@@H](CCCNC(=N)N)C(=O)NCC(N)=O)NC(=O)[C@H](CC(N)=O)NC1=O [d(CH2) 5 [D-Phe^2]VAVP, [1-(beta-mercapto-beta,beta-cyclopentamethylenepropionic acid), 2-D-phenylalanine, 4-valine]-arginine vasopressin, reference compound] ([dF]FVNCPRG-NH2; linker N-5 via X1) | 8.06 ± 0.09 | 8.06 ± 0.03 |  |
| CC(C)[C@@H]1NC(=O)[C@H](Cc2ccccc2)NC(=O)[C@@H](Cc2ccccc2)NC(=O)CC2(CCCCC2)SSC[C@@H](C(=O)N2CCC[C@H]2C(=O)N[C@@H](CCCNC(=N)N)C(=O)O)NC(=O)[C@H](CC(N)=O)NC1=O [desGly(NH2)^9 d(CH2)5 [D-Phe^2]VAVP, [1-(beta-mercapto-beta,beta-cyclopentamethylenepropionic acid), 2-D-phenylalanine, 4-valine, 9-desglycinamide]-arginine vasopressin] ([dF]FVNCPR-OH; linker N-5 via X1) | 7.75 ± 0.11 | 7.93 ± 0.05 |  |
| CCOc1ccc(C[C@H]2NC(=O)CC3(CCCCC3)SSC[C@@H](C(=O)N3CCC[C@H]3C(=O)N[C@@H](CCCNC(=N)N)C(=O)O)NC(=O)[C@H](CC(N)=O)NC(=O)[C@H](C(C)C)NC(=O)[C@H](Cc3ccccc3)NC2=O)cc1 [desGly(NH2)^9 d(CH2)5 [D-Tyr(Et)^2]VAVP, [1-(beta-mercapto-beta,beta-cyclopentamethylenepropionic acid), 2-D-(O-ethyl)tyrosine, 4-valine, 9-desglycinamide]-arginine vasopressin] ([dY](Et)FVNCPR-OH; linker N-5 via X1) | 7.78 ± 0.03 | 7.77 ± 0.02 |  |
| COc1ccc(C[C@@H]2NC(=O)CC3(CCCCC3)SSC[C@@H](C(=O)N3CCC[C@H]3C(=O)N[C@@H](CCCNC(=N)N)C(=O)O)NC(=O)[C@H](CC(N)=O)NC(=O)[C@H](CCC(N)=O)NC(=O)[C@H](Cc3ccccc3)NC2=O)cc1 [desGly(NH2)^9 d(CH2)5 [Tyr(Me)^2]AVP] (Y(Me)FQNCPR-OH; linker N-5 via X1) | ~ 5.4 | 8.46 ± 0.05 |  |
| CC[C@H](C)[C@@H]1NC(=O)[C@H](Cc2ccccc2)NC(=O)[C@@H](Cc2ccccc2)NC(=O)CC2(CCCCC2)SSC[C@@H](C(=O)N2CCC[C@H]2C(=O)N[C@@H](CCCNC(=N)N)C(N)=O)NC(=O)[C@H](CC(N)=O)NC1=O [desGly^9 d(CH2)5 [D-Phe^2,Ile^ 4]AVP, [1-(beta-mercapto-beta,beta-cyclopentamethylenepropionic acid), 2-D-phenylalanine, 4-isoleucine, 9-desglycine]-arginine vasopressin] ([dF]FINCPR-NH2; linker N-5 via X1) | 8.05 ± 0.09 | 7.84 ± 0.03 |  |
| CC(C)[C@@H]1NC(=O)[C@H](Cc2ccccc2)NC(=O)[C@@H](Cc2ccccc2)NC(=O)CC2(CCCCC2)SSC[C@@H](C(=O)N2CCC[C@H]2C(=O)N[C@@H](CCCNC(=N)N)C(N)=O)NC(=O)[C@H](CC(N)=O)NC1=O [desGly^9 d(CH2)5 [D-Phe^2]VAVP, [1-(beta-mercapto-beta,beta-cyclopentamethylenepropionic acid), 2-D-phenylalanine, 4-valine, 9-desglycine]-arginine vasopressin] ([dF]FVNCPR-NH2; linker N-5 via X1) | 8.09 ± 0.08 | 8.15 ± 0.03 |  |
| CCOc1ccc(C[C@H]2NC(=O)CC3(CCCCC3)SSC[C@@H](C(=O)N3CCC[C@H]3C(=O)N[C@@H](CCCNC(=N)N)C(N)=O)NC(=O)[C@H](CC(N)=O)NC(=O)[C@H](C(C)C)NC(=O)[C@H](Cc3ccccc3)NC2=O)cc1 [desGly^9 d(CH2)5 [D-Tyr(Et)^2]VAVP, [1-(beta-mercapto-beta,beta-cyclopentamethylenepropionic acid), 2-D-(O-ethyl)tyrosine, 4-valine, 9-desglycine]-arginine vasopressin] ([dY](Et)FVNCPR-NH2; linker N-5 via X1) | 7.69 ± 0.08 | 8.17 ± 0.04 |  |
| CCOc1ccc(C[C@@H]2NC(=O)CC3(CCCCC3)SSC[C@@H](C(=O)N3CCC[C@H]3C(=O)N[C@@H](CCCNC(=N)N)C(N)=O)NC(=O)[C@H](CC(N)=O)NC(=O)[C@H](C(C)C)NC(=O)[C@H](Cc3ccccc3)NC2=O)cc1 [desGly^9 d(CH2)5 [Tyr(Et)^2]VAVP, [1-(beta-mercapto-beta,beta-cyclopentamethylenepropionic acid), 2-(O-ethyl)tyrosine, 4-valine, 9-desglycine]-arginine vasopressin] (Y(Et)FVNCPR-NH2; linker N-5 via X1) | 7.89 ± 0.09 | 8.18 ± 0.02 |  |
| COc1ccc(C[C@@H]2NC(=O)CC3(CCCCC3)SSC[C@@H](C(=O)N3CCC[C@H]3C(=O)N[C@@H](CCCNC(=N)N)C(N)=O)NC(=O)[C@H](CC(N)=O)NC(=O)[C@H](CCC(N)=O)NC(=O)[C@H](Cc3ccccc3)NC2=O)cc1 [desGly^9 d(CH2)5 [Tyr(Me)^2]AVP, [1-(beta-mercapto-beta,beta-cyclopentamethylenepropionic acid), 2-(O-methyl)tyrosine, 9-desglycine]-arginine vasopressin] (Y(Me)FQNCPR-NH2; linker N-5 via X1) | ~ 6.1 | 8.44 ± 0.10 |  |
| deamido-arginine vasopressin (CYFQNCPRG-OH; disulfide 1-6 (inferred); ends not checked; UniProt P01185 20-28, looked up) [AVP-acid, purchased from Bachem, Inc; alternatively, vasopressinoic acid] |  |  | Agonistic Activities VP (vasopressor response): < 0.03 units/mg; Agonistic Activities ADH [1]: 4.7 ± 0.6 units/mg; antidiuretic character in vivo ([1]; Table 1 footnote b): antidiuretic agonist in vivo |
